Assay results: patent US7732412B2, “Methods of treatment using novel LHRH antagonists having improved solubility properties” (Zentaris GmbH, priority 1999, dated 2010)
Blank lines part the entries; values can stand above or below the compound they belong to. Numbered stars: 1 amine (or outer) side, 2 acyl side, 3 side chain; on linkers, the order of the positions; unused ones are H or OH. Square brackets hold non-standard residues; d marks the D form. Side chains are listed from the residue outwards. Peptide text beside a SMILES is read from it. * marks the point of attachment. Triazole(1,2,4-3-CO,5-NH) = O=C(c1n[nH]c(N[*:1])n1)[*:2]; Propanoyl(3-(4-F-phenyl)) = O=C(CCc1ccc(F)cc1)*; NH(4-amidinophenyl) = N=C(N)c1ccc(N*)cc1; dPhe(4-Cl) = N[C@H](Cc1ccc(Cl)cc1)C(=O)O; d1Nal = N[C@H](Cc1cccc2ccccc12)C(=O)O; d2Nal = N[C@H](Cc1ccc2ccccc2c1)C(=O)O; d(hCit) = NC(=O)NCCCC[C@@H](N)C(=O)O; Lys(iPr) = CC(C)NCCCC[C@H](N)C(=O)O; NMeY = CN[C@@H](Cc1ccc(O)cc1)C(=O)O; d3Pal = N[C@H](Cc1cccnc1)C(=O)O; Suc = O=C(CCC(=O)[*:2])[*:1]; Nle = CCCC[C@H](N)C(=O)O; Sar = CNCC(=O)O

Legend:
[1] = target: T1, human LHRH receptor (Homo sapiens, UniProt P30968); experiment: functional assay for antagonistic activity, fos-Luc luciferase reporter gene, stimulation with 1 nM [D-Trp6] LHRH; type: cell-based; design: expressed in transfected cells; conditions: cells stimulated with 1 nM [D-Trp6] LHRH for 6 h; bracket = number of independent experiments
T1 sequence (P30968 1-328): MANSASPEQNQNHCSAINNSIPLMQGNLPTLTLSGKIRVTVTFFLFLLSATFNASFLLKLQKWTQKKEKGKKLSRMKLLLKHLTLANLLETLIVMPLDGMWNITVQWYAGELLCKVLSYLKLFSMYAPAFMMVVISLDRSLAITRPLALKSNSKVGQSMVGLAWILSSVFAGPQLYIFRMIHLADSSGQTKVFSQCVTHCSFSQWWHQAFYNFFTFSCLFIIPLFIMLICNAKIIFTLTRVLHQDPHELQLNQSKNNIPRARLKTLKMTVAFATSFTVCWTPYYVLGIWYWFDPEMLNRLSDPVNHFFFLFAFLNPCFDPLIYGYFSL
Protocol: The assay for the functional characterization of antagonistic analogs of LH-RH was carried out, with some modifications, as described in Beckers et al., “Characterization of gonadotropin-releasing hormone analogs based on a sensitive cellular luciferase reporter gene assay” (1997) Analyt. Biochem. 251, 17-23. The assay uses a reporter gene made by fusing the c-fos immediate-early gene promoter to a DNA sequence encoding luciferase (Luc). A recombinant cell line that expresses the human LH-RH. receptor is stably transfected with the fos-Luc reporter gene. Transcription of the fos-Luc fusion gene and synthesis of the Luc protein is induced in the cells in a dose-dependent manner by LH-RH and other LH-RH agonists that bind and signal through the human LH-RH receptor. Peptide LH-RH antagonists such as the compounds of the invention bind to cellular LH-RH receptors and inhibit this stimulation. The antagonistic potency (IC50) of peptide LH-RH antagonists as determined by the assay generally correlates well with the binding affinity (KD) of the LH-RH antagonists for LH-RH receptor as determined from ligand binding experiments.
Cells containing the fos-Luc reporter gene that express the human LH-RH receptor were cultured for 24 h in microtitre plates using DMEM with additives and 1% (v:v) FCS (10,000 cells per well). The cells were then stimulated with 1 nM [D-Trp^6] LHRH for 6 h. Peptide LH-RH antagonist compounds according to the invention were added before the stimulation, and the cells were lysed at the end for quantification of the cellular Luc activity. The calculation of the IC50 values from dose-effect curves was carried out by non-linear regression analysis using the Hill model (Programme EDX 2.0 from C. Grunwald, Arzneimittelwerk Dresden).
The quantification of the Luc activity was carried out in duplicate essentially as described (Promega Technical Bulletins #101/161) using the respective luciferase assay system (Promega E4030). Owing to addition of coenzyme A (CoA), an oxidation of luciferyl-CoA takes place with advantageous kinetics. After the removal of the culture medium from the microtitre plate, the cells were lysed by addition of 100 μl of lysis buffer (25 mM tris-phosphate pH 7.8, 2 mM dithiothreitol, 2 mM 1,2-diaminocyclohexane-N,N,N′,N′-tetraacetic acid (CDTA), 10% (v:v) glycerol, 1% (v:v) Triton X-100). After incubation at room temperature for 15 min, 10 μl of cell lysate were transferred into a white microtitre plate suitable for luminometric detection (Dynatech). The enzymatic reaction was initiated by addition of 50 μl of assay buffer (20 mM tricine pH 7.8, 1.07 mM (MgCO3)4Mg(OH)2, 2.67 mM MgSO4, 0.1 mM ethylene-diaminetetraacetic acid (EDTA), 33.3 mM dithiothreitol, 270 μM coenzyme A, 470 μM glow-worm (Photinus pyralis) luciferin, 530 μM rATPNa2). After one minute, the luminescence was determined for a total time of one second with a signal half-life of five minutes using the EG&G Berthold MicroLumat LB 96 P.

[2] = test system: patients who suffer from prostate carcinoma; experiment: first clinical trial in prostate carcinoma, 14 patients, testosterone and PSA; type: in vivo, human
Protocol: (§1) The following data are derived from two clinical studies comprising 14 and 13 patients, respectively, who suffer from prostate carcinoma and who were treated with the compound of the invention having the formula: Ac-D-Nal(2)^1-D-Cpa^2-D-Pal(3)^3-Ser^4-N-Me-Tyr^5-D-Hci^6-Nle^7-Arg^8-Pro^9-D-Ala^10-NH2 (Ozarelix)
In the first clinical trial, patients were given i.m. injections of 65 mg Ozarelix on day 1 followed by another 65 mg i.m. injection on day 2. Patients were re-treated after a waiting period of 4 weeks. This 4 week period of treatment is referred to as a treatment “cycle”. Accordingly, dosage of 130 mg of Ozarelix was provided to the patients in the first four week cycle of treatment (Cycle 1).
Six out of these 14 patients were subsequently administered 65 mg Ozarelix per i.m. injection on day 29 and day 30 each, whereas the other eight patients only received 65 mg Ozarelix on day 29 (Cycle 2). This schedule was repeated on day 57/58 accordingly (Cycle 3).
As for the administration days, testosterone levels were always determined before application of ozarelix to the patients. In addition, mean change of Prostate Specific Antigen (PSA) levels were monitored 4-weekly over a period of 12 weeks. The percent change of PSA shown is the mean value for all treated patients and refers to the normalized individual baseline PSA levels before first Ozarelix administration.

[3] = test system: patients who suffer from prostate carcinoma; experiment: second clinical trial in prostate carcinoma, 13 patients, testosterone; type: in vivo, human
Protocol: as §1
In the second clinical trial patients were given a single im. injection of 130 mg Ozarelix on day 1. Patients were re-treated after a waiting period of 4 weeks, and this 4 week period is considered as a treatment “Cycle”. Accordingly, dosage of 130 mg of Ozarelix was again provided to the patients in the first four week cycle of treatment (Cycle 1).
Seven out of these 13 patients were subsequently administered 130 mg Ozarelix per i.m. injection on day 29, whereas the other six patients received 100 mg Ozarelix on day 29 (Cycle 2). This schedule was repeated on day 57 accordingly (Cycle 3).
As for the administration days, testosterone levels were always determined before application of Ozarelix to the patients.

IC50 [1]: 0.242 nM
SMILES: CCCC[C@H](NC(=O)[C@@H](CCCCNC(N)=O)NC(=O)[C@H](Cc1ccc(O)cc1)N(C)C(=O)[C@H](CO)NC(=O)[C@@H](Cc1cccnc1)NC(=O)[C@@H](Cc1ccc(Cl)cc1)NC(=O)[C@@H](Cc1ccc2ccccc2c1)NC(C)=O)C(=O)N[C@@H](CCCNC(=N)N)C(=O)N1CCC[C@H]1C(=O)N[C@H](C)C(N)=O [Example 1, Ac-D-Nal(2)^1-D-Cpa^2-D-Pal(3)^3-Ser^4-N-Me-Tyr^5-D-Hci^6-Nle^7-Arg^8-Pro^9-D-Ala^10-NH2] (Ac-[d2Nal][dPhe(4-Cl)][d3Pal]S[NMeY][d(hCit)][Nle]RP[dA]-NH2)
PSA levels over the monitoring period ([2]; 12 weeks, first trial): significantly reduced
Testosterone (mean) ([2]; Day 2, 65 mg i.m. on day 1 and 2, re-treated day 29(/30) and 57(/58), pre-dose day 1 4.4 ng/mL): 0.6 ng/mL
Testosterone (mean) ([2]; Day 3, first trial, 65 mg i.m. on day 1 and 2): 0.3 ng/mL
Testosterone (mean) ([2]; Day 8, first trial): 0.2 ng/mL
Testosterone (mean) ([2]; Day 15, first trial): 0.1 ng/mL
Testosterone (mean) ([2]; Day 22, first trial): 0.1 ng/mL
Testosterone (mean) ([2]; Day 29, before application, first trial): 0.2 ng/mL
PSA [% change] (mean, versus individual baseline) ([2]; Day 29, first trial): −77 % change
Testosterone (mean) ([2]; Day 36, first trial): 0.1 ng/mL
Testosterone (mean) ([2]; Day 43, first trial): 0.1 ng/mL
Testosterone (mean) ([2]; Day 50, first trial): 0.1 ng/mL
Testosterone (mean) ([2]; Day 57, before application, first trial): 0.1 ng/mL
PSA [% change] (mean, versus individual baseline) ([2]; Day 57, first trial): −88 % change
Testosterone (mean) ([2]; Day 64, first trial): 0.1 ng/mL
Testosterone (mean) ([2]; Day 71, first trial): 0.1 ng/mL
Testosterone (mean) ([2]; Day 78, first trial): 0.1 ng/mL
PSA [% change] (mean, versus individual baseline) ([2]; Day 85, first trial): −89 % change
Testosterone (mean) ([2]; Day 85, first trial): 0.3 ng/mL
testosterone values of all patients ([2]; afterwards (after day 3), first trial): < 0.5 ng/mL
treated patients hormonally castrated (testosterone <0.5 ng/mL) ([2]; day 2 (24 hours post-dose), first trial): 57%
treated patients hormonally castrated (testosterone <0.5 ng/mL) ([2]; day 3 (48 hours post-dose), first trial): 79%
Testosterone (mean) ([3]; Day 2, single 130 mg i.m. on day 1, re-treated day 29 and 57 (130 or 100 mg), pre-dose day 1 3.9 ng/mL): 0.4 ng/mL
Testosterone (mean) ([3]; Day 3, second trial, 130 mg i.m. on day 1): 0.3 ng/mL
Testosterone (mean) ([3]; Day 8, second trial): 0.1 ng/mL
Testosterone (mean) ([3]; Day 15, second trial): 0.1 ng/mL
Testosterone (mean) ([3]; Day 22, second trial): 0.1 ng/mL
Testosterone (mean) ([3]; Day 29, before application, second trial): 0.2 ng/mL
Testosterone (mean) ([3]; Day 36, second trial): 0.1 ng/mL
Testosterone (mean) ([3]; Day 43, second trial): 0.1 ng/mL
Testosterone (mean) ([3]; Day 50, second trial): 0.1 ng/mL
Testosterone (mean) ([3]; Day 57, before application, second trial): 0.2 ng/mL
Testosterone (mean) ([3]; Day 64, second trial): 0.1 ng/mL
Testosterone (mean) ([3]; Day 71, second trial): 0.1 ng/mL
Testosterone (mean) ([3]; Day 78, second trial): 0.1 ng/mL
Testosterone (mean) ([3]; Day 85, second trial): 0.3 ng/mL
testosterone values of all patients ([3]; afterwards (after day 3), second trial): < 0.5 ng/mL
treated patients hormonally castrated (testosterone <0.5 ng/mL) ([3]; day 2 (24 hours post-dose), second trial): 69%
treated patients hormonally castrated (testosterone <0.5 ng/mL) ([3]; day 3 (48 hours post-dose), second trial): 100%

IC50 [1]: 0.221 nM
SMILES: CC(C)C[C@H](NC(=O)[C@@H](CCCCNC(=O)c1nc(N)n[nH]1)NC(=O)[C@H](Cc1ccc(O)cc1)N(C)C(=O)[C@H](CO)NC(=O)[C@@H](Cc1cccc2ccccc12)NC(=O)CCc1ccc(F)cc1)C(=O)N[C@@H](CCCNC(=N)N)C(=O)N1CCC[C@H]1C(=O)N[C@H](C)C(N)=O [Example 6, 3-(4-Fluorophenyl)propionyl-D-Nal(1)^1-Ser^4-N-Me-Tyr^5-D-Lys (Atz)^6-Leu^7-Arg^8-Pro^9-D-Ala^10-NH2] ({Propanoyl(3-(4-F-phenyl))}-[d1Nal]S[NMeY][dK](Triazole(1,2,4-3-CO,5-NH))LRP[dA]-NH2)

IC50 [1]: 1.3 nM
SMILES: CCCC[C@H](NC(=O)[C@@H](CCCCNC(=O)CCC(=O)Nc1ccc(C(=N)N)cc1)NC(=O)[C@H](Cc1ccc(O)cc1)N(C)C(=O)[C@H](CO)NC(=O)[C@@H](Cc1cccnc1)NC(=O)[C@@H](Cc1ccc(Cl)cc1)NC(=O)[C@@H](Cc1ccc2ccccc2c1)NC(C)=O)C(=O)N[C@@H](CCCNC(=N)N)C(=O)N1CCC[C@H]1C(=O)N(C)CC(N)=O [Example 7, Ac-D-Nal(2)^1-D-Cpa^2-D-Pal(3)^3-Ser^4-N-Me-Tyr^5-D-Lys(B)^6-Nle^7-Arg^8-Pro^9-Sar^10-NH2] (Ac-[d2Nal][dPhe(4-Cl)][d3Pal]S[NMeY][dK]([Suc-NH(4-amidinophenyl)])[Nle]RP[Sar]-NH2)

IC50 [1]: 1.4 nM
SMILES: CCCC[C@H](NC(=O)[C@@H](CCCCNC(=O)CCC(=O)Nc1ccc(C(=N)N)cc1)NC(=O)[C@H](Cc1ccc(O)cc1)N(C)C(=O)[C@H](CO)NC(=O)[C@@H](Cc1cccnc1)NC(=O)[C@@H](Cc1ccc(Cl)cc1)NC(=O)[C@@H](Cc1ccc2ccccc2c1)NC(C)=O)C(=O)N[C@@H](CCCNC(=N)N)C(=O)N1CCC[C@H]1C(=O)N[C@H](C)C(N)=O [Example 8, Ac-D-Nal(2)^1-D-Cpa^2-D-Pal(3)^3-Ser^4-N-Me-Tyr^5-D-Lys(B)^6-Nle^7-Arg^8-Pro^9-D-Ala^10-NH2] (Ac-[d2Nal][dPhe(4-Cl)][d3Pal]S[NMeY][dK]([Suc-NH(4-amidinophenyl)])[Nle]RP[dA]-NH2)

IC50 [1]: 4.7 nM
SMILES: CCCC[C@H](NC(=O)[C@@H](CCCCNC(=O)CCC(=O)Nc1ccc(C(=N)N)cc1)NC(=O)[C@H](Cc1ccc(O)cc1)N(C)C(=O)[C@H](CO)NC(=O)[C@@H](Cc1cccnc1)NC(=O)[C@@H](Cc1ccc(Cl)cc1)NC(=O)[C@@H](Cc1ccc2ccccc2c1)NC(C)=O)C(=O)N[C@@H](CCCCNC(C)C)C(=O)N1CCC[C@H]1C(=O)N(C)CC(N)=O [Example 9, Ac-D-Nal(2)^1-D-Cpa^2-D-Pal(3)^3-Ser^4-N-Me-Tyr^5-D-Lys(B)^6-Nle^7-Lys(iPr)^8-Pro^9-Sar^10-NH2] (Ac-[d2Nal][dPhe(4-Cl)][d3Pal]S[NMeY][dK]([Suc-NH(4-amidinophenyl)])[Nle][Lys(iPr)]P[Sar]-NH2)
